These results are taken from patent US20110166206A1, “UBIQUILIN REGULATION OF PRESENILIN ENDOPROTEOLYSIS, AND SUPPRESSION OF POLYGLUTAMINE-INDUCED TOXICITY IN CELLS” (UNIVERSITY OF MARYLAND BIOTECHNOLOGY INSTITUTE, priority 2005, published 2011).

For one series, the system named is HeLa cells. Briefly: Co-transfection of ubiquilin-1 cDNA with GFP-Htt Exon 1 Q74 construct in HeLa cells. It is filed as cell-based. The method, then: FIG. 9. […] Immunoblots showing GFP-immunoreactivity after biochemical fractionation of parallel sets of HeLa cells transfected with the constructs described in (A) into Triton-X100 soluble and pellet fractions. • D. Densitometric quantification of anti-GFP immunoreactive bands depicting the relative amount of GFP-irnmunoreaction found in the pellet compared to that the total (soluble and pellet fractions combined).
HeLa cells were grown in DME supplemented with 10% FBS. Cells were transiently transfected with plasmid DNA using by calcium phosphate coprecipitation. Stable HeLa cell lines were isolated by cotransfection of EGFP expression constructs with a pNeo plasmid and selection with G418. Stable cell lines were identified by GFP-fluorescence.
Cell death was monitored either through examination of the nuclear morphology observed after Hoechst 33342 (1 μg/ml) staining, or through detecting the membrane selective permeability following 3 μM of propidium iodide (PI) staining. Terminal deoxynucleotidyl Transferase Biotin-dUTP Nick End Labeling (TUNEL) staining was performed with DeadEnd Colorimetric TUNEL staining kits purchased from Promega. For detecting caspase-3 activation, two methods were used. Cell lysates were separated by SDS-PAGE and probed with an antibody against the cleaved substrate for caspase-3. Alternatively, caspase activity was also detected by flurogenic techniques by incubating the cell lysates with a flurogenic caspase-3 substrate, AC-DEVD-AMC in a 96-well plate. After incubation, the cleaved free AMC was scanned by a fluorescence multi-well plate reader (SOSTmax, Sunnyvale, CA) with an excitation at 380 nm (excitation) and emission at 460 nm (emission).
Having established that expression of GFP-tagged Htt-Exon1-polyglutamine fusion proteins in HeLa cells caused a polyglutamine-number dependent increase in intracellular inclusion formation, Triton-X100 insolubility, and cell death, it was necessary to examined what effect overexpression of ubiquilin-1 has on these properties. […]

Series [1] deals with GFP-HttQ74-3 and GFP-HttQ28-2 HeLa cell lines. Briefly: Ubiquilin-1 transfection of stable GFP-HttPolyQ HeLa cell lines, serum withdrawal-induced cell death and aggregates. It is filed as cell-based. The source says:
FIG. 11. […] The 28Q-2 and 74Q-3 were used in most of our studies. The asterisk corresponds to a non-specific band that is detected by the GFP antibody. • B. Representative fluorescent images of GFP-HttPolyQ(28)-2 and GFP-HttPolyQ(74)-3 stable cell lines. Note that GFP fluorescence is located in both the cytoplasm and the nucleus, but that compact foci are only seen in the GFP-HttPolyQ(74)-3 cells. • C. Cells expressing expanded polyglutamine proteins are more sensitive to H2O2. The GFP-HftPolyQ(28)-2 and GFP-HttPolyQ(74)-3 stable cell lines were exposed to 200 μM concentration of H2O2 and after 5 hr, the cells were stained with both Hoechest 33342 and PI. The cells stained by PI represent the dead cells whereas all the nuclei are identified by Hoechst 33342 staining. • D. Graph showing percentage of cell death after the cells were exposed to different concentrations of H2O2 for 5 hr. Percentages of cell death calculated by determining the ratio of PI-positively stained cells to that of Hoechst-stained cells. There was a significant difference in cell death upon exposure of GFP-HttPolyQ(28)-2 and GFP-HttPolyQ(74)-3 to 100 μM, 150 μM, or 200 μM of H2O2 (p<0.001). • E. Representative images showing that overexpression of ubiquilin-1 protects GFP-HttPolyQ(74)-3 expressing cells against serum withdrawal-induced cell death. Cells stably expressing GFP-HttPolyQ(28) or GFP-HttPolyQ(74) were transiently transfected with or without (mock transfection) plasmids encoding ubiquilin-1 by the calcium phosphate coprecipitation method. […] Cell death was quantified as described in D above. • H. Representative images showing that ubiquilin-1 overexpression protects GFP-HttPolyQ(74)-3 expressing cells against serum withdrawal-induced cell death, in a dose-dependent manner. […] After 5 hours of serum withdrawal and 30 hours following the transfection, the amount of cell death was analyzed by staining cells with both PI and Hoechst 33342. • I. Graph showing quantification of cell death in the experiments described in H. • J. Immunoblot showing overexpression of increasing amounts of ubiquilin-1 cDNA in the GFP-HttPolyQ(74)-3 cell line reduces GFP-aggregates trapped in the stacking gel after SDS-PAGE. […] Bottom panel: Quantification of the spot intensity determined in three independent experiments.
HeLa cells were grown in DME supplemented with 10% FBS. […] Stable cell lines were identified by GFP-fluorescence.
Cell death was monitored either through examination of the nuclear morphology observed after Hoechst 33342 (1 μg/ml) staining, or through detecting the membrane selective permeability following 3 μM of propidium iodide (PI) staining. […]

As for “UBQLN1: PS-interacting protein ubiquilin-1, overexpressed in cells from a cDNA expression plasmid”, the “GFP-HttPolyQ74 fusion protein accumulation” value in the series on HeLa cells (anti-GFP immunoblot) is “dose-dependent increase in accumulation”. Besides, the “Triton-X100 solubility of GFP-HttPolyQ74 fusion protein” value with HeLa cells (biochemical fractionation) is on record as “a greater proportion of the GFP-HttPolyQ74-fusion protein remained soluble”. For the same substance, in the series with HeLa cells (increasing amounts of ubiquilin-1 cDNA vs GFP-Htt Exon-1PolyQ74 alone), the cell death entry is on record as “dose-dependent decrease in cell death”. Moreover, in series [1] (GFP-HttPolyQ(74)-3 cells, 2, 3 and 6 μg vs mock or 1 μg), the “spot intensity of GFP-aggregates, filter retardation assay” value was “significantly lower”. Moreover, in series [1] (GFP-HttQ28-2 cell line), the “cell death, ubiquilin-1-transfected vs mock-transfected” value is recorded as “no significant difference in cell death”. Moreover, the “protection against cell death with increasing amounts of plasmid” value in series [1] (GFP-HttQ74-3 cell line) is “dose-dependent protection against cell death”. Also, the “reduction in cell death” value in series [1] (GFP-HttQ74-3 cell line, 24 hours after transfection and serum deprivation, vs untransfected) is “approximately 50%”.
